Marks after values point to notes of the source that are not given here.
Experiments:
[1] = tested on: rat ovariectomy model (post menopausal osteopenia); assay: Bone mineral density in vivo (Dual Energy X-ray Absorptiometry), rat ovariectomy model; details: OVX rats
Method: (§1) Comparison of the efficacy of Compound 7 to that of 1,25-dihydroxy vitamin D3 (i.e., VD3), was made using the standard animal model for post menopausal osteopenia, the rat ovariectomy model. Three month old rats weighing 285gm were ovariectomized (OVX), and then treated for 8 weeks beginning 1 week post OVX. Drugs were administered once/day orally in miglyol (medium chain triglyceride) vehicle. Blood and urine samples were collected at the 3 wk and 6 wk timepoint, and bone mineral density (BMD) was determined in vivo at 6 wk using Dual Energy X-ray Absorptiometry (Hologic QDR-4500™ Bone Scanner). At 8 weeks, the animals were sacrificed, and the lumbar vertebrae and femur bones removed for ex vivo BMD determination (Lunar PixiMus™ Bone Scanner) and biomechanical testing for strength. Data for each compound are reported in the accompanying tables for the highest safe doses.
(§2) The doses being compared all gave 3 wk serum calcium levels of 9.3 mg/dl, and 6 wk levels of 9.8±0.1 mg/dl. At these doses, the urinary calcium output per 24 hr sample was the same for the 0.4 nmol/kg dose of VD3 and the 0.5 nmol/kg dose of Compound 7. […] These doses represent those expected to give maximal efficacy achievable safely, as higher doses of each compound are known to be hypercalcemic. […] Failure Load, the amount of force needed to fracture the L5 vertebra, was determined in axial compression testing.

[2] = Urinary calcium in the rat ovariectomy model (safety); type: in vivo; details: OVX rats; for urinary calcium output per 24 hr sample, compared between the two substances: 0.4 nmol/kg dose of VD3 and 0.5 nmol/kg dose of Compound 7
Method: as §1, §2

[3] = tested on: rat ovariectomy model (post menopausal osteopenia); assay: L5 vertebral body biomechanics (axial compression testing), rat ovariectomy model; type: in vivo; details: OVX rats
Method: as §1, §2

[4] = tested on: rat ovariectomy model (post menopausal osteopenia); assay: L5 bone density ex vivo (BMD, BMC), rat ovariectomy model; type: in vivo; details: OVX rats
Method: as §1

[5] = Serum calcium in the rat ovariectomy model (safety); type: in vivo; details: OVX rats
Method: as §1, §2

[6] = tested on: rat ovariectomy model (post menopausal osteopenia); assay: Urinary deoxypyridinolines (marker of bone resorption), rat ovariectomy model; type: in vivo; details: OVX rats
Method: as §1, §2

[7] = tested on: patients commencing long term treatment with prednisone or prednisolone; details: 0.5 to 1.0 micrograms/day plus calcium 1000 mg/day, with or without intranasal calcitonin 400 IU/day; cited from earlier work
[8] = tested on: women with postmenopausal osteoporosis; details: cited from earlier work
[9] = Week 6, 0.5 nmol/kg once/day orally
[10] = Week 3, 0.5 nmol/kg once/day orally
[11] = Week 8, 0.5 nmol/kg once/day orally
[12] = Week 6, 0.012 nmol/kg once/day orally
[13] = Week 6, 0.04 nmol/kg once/day orally
[14] = Week 3, 0.012 nmol/kg once/day orally
[15] = Week 3, 0.04 nmol/kg once/day orally
[16] = Week 8, 0.012 nmol/kg once/day orally

C=C1/C(=C\C=C2/CCC[C@]3(C)[C@@H](C4(C/C=C/C(O)(C(F)(F)F)C(F)(F)F)CC4)CC[C@@H]23)CCC[C@@H]1O [Compound 27]
PERCENT BMD > OVX CONTROL in vivo, Distal Femur, Mean [1, 9]: 8.5 ** PERCENT
PERCENT BMD > OVX CONTROL in vivo, L2-L4 Vertebrae, Mean [1, 9]: 10.3 ** PERCENT
PERCENT BMD > OVX CONTROL in vivo, L5 vertebrae, Mean [1, 9]: 8.7 ** PERCENT
PERCENT BMD > OVX CONTROL in vivo, Prox Femur, Mean [1, 9]: 5.7 ** PERCENT
PERCENT BMD > OVX CONTROL in vivo, Whole Femur, Mean [1, 9]: 6.3 ** PERCENT
BMD at all of the bone sites listed, compared with VD3 ([1]; doses which give equivalent serum calcium levels): significantly higher
urinary calcium output per 24 hr sample, compared between the two substances [2]: the same
URINARY CALCIUM, Mean [2, 10]: 0.51 **+ MG/MMOL Creatineine/day
URINARY CALCIUM, Mean [2, 9]: 0.72 **++ MG/MMOL Creatineine/day
vertebral bone strength ([3]; L5 vertebra): stronger vertebral bone
L5 Vertebral Body BIOMECHANICS, Failure Load, Mean [3, 11]: 419 ** N
Failure Load, force needed to fracture the L5 vertebra, compared with VD3 ([3]; axial compression testing, highest safe doses): Significantly more force was needed
L5 Bone Density Ex Vivo, BMC, Mean [4, 11]: 0.039 ** g
L5 Bone Density Ex Vivo, BMD, Mean [4, 11]: 0.112 ** g/cm^2
SERUM CALCIUM, Mean [5, 10]: 9.3 ns mg/dl
SERUM CALCIUM, Mean [5, 9]: 9.9 **+ mg/dl
Urinary deoxy-pyridinolines (marker of bone resorption), compared with VD3 ([6]; 6 weeks): significantly less
URINARY D-PYD, Mean [6, 10]: 0.65 *+ nM/mM Creatinine
URINARY D-PYD, Mean [6, 9]: 0.57 **+ nM/mM Creatinine

C=C1/C(=C\C=C2/CCC[C@]3(C)[C@@H]([C@H](C)CCCC(C)(C)O)CC[C@@H]23)C[C@@H](O)C[C@@H]1O [VitD, 1,25-dihydroxy vitamin D3]
PERCENT BMD > OVX CONTROL in vivo, Distal Femur, Mean [1, 12]: 2.8 ++ PERCENT
PERCENT BMD > OVX CONTROL in vivo, L2-L4 Vertebrae, Mean [1, 12]: 3.3 ++ PERCENT
PERCENT BMD > OVX CONTROL in vivo, L5 vertebrae, Mean [1, 12]: 2.7 ++ PERCENT
PERCENT BMD > OVX CONTROL in vivo, Prox Femur, Mean [1, 12]: 3.5 ns PERCENT
PERCENT BMD > OVX CONTROL in vivo, Whole Femur, Mean [1, 12]: 3.3 + PERCENT
PERCENT BMD > OVX CONTROL in vivo, Distal Femur, Mean [1, 13]: 2.8 ++ PERCENT
PERCENT BMD > OVX CONTROL in vivo, L2-L4 Vertebrae, Mean [1, 13]: 5.4 * PERCENT
PERCENT BMD > OVX CONTROL in vivo, L5 vertebrae, Mean [1, 13]: 4.9 ++ PERCENT
PERCENT BMD > OVX CONTROL in vivo, Prox Femur, Mean [1, 13]: 0.7 ++ PERCENT
PERCENT BMD > OVX CONTROL in vivo, Whole Femur, Mean [1, 13]: 1.9 ++ PERCENT
urinary calcium output per 24 hr sample, compared between the two substances [2]: the same
URINARY CALCIUM, Mean [2, 14]: 0.31 ** MG/MMOL Creatineine/day
URINARY CALCIUM, Mean [2, 15]: 0.51 **+ MG/MMOL Creatineine/day
URINARY CALCIUM, Mean [2, 12]: 0.43 ** MG/MMOL Creatineine/day
URINARY CALCIUM, Mean [2, 13]: 0.71 **++ MG/MMOL Creatineine/day
L5 Vertebral Body BIOMECHANICS, Failure Load, Mean [3, 16]: 342 * N
steroid-induced bone loss [7]: prevented steroid-induced bone loss
L5 Bone Density Ex Vivo, BMC, Mean [4, 16]: 0.035 ns g
L5 Bone Density Ex Vivo, BMD, Mean [4, 16]: 0.103 ++ g/cm^2
SERUM CALCIUM, Mean [5, 14]: 9.3 nd mg/dl
SERUM CALCIUM, Mean [5, 15]: 9.3 ns mg/dl
SERUM CALCIUM, Mean [5, 12]: 9.8 **+ mg/dl
SERUM CALCIUM, Mean [5, 13]: 9.7 ** mg/dl
lower rate of new vertebral fractures compared with patients receiving elemental calcium 1000 mg/day ([8]; mild to moderate disease, 0.25 microgram twice daily, after 3 years of treatment): 3 fold
tolerability ([8]; patients, overall): well tolerated
URINARY D-PYD, Mean [6, 14]: 0.81 ++ nM/mM Creatinine
URINARY D-PYD, Mean [6, 15]: 0.75 ++ nM/mM Creatinine
URINARY D-PYD, Mean [6, 12]: 0.78 ++ nM/mM Creatinine
URINARY D-PYD, Mean [6, 13]: 0.76 ++ nM/mM Creatinine

From US7491711B2, “Methods of treatment using 3-desoxy vitamin D3 analogs” (Roche Palo Alto LLC, priority 2001, dated 2009)
